# Values quoted from earlier work, collected in patent publication US20090265114A1, “Influenza virus neuraminidase crystal structure and their use thereof” (priority 2006, published 2009).
# Assays:
# [1] = test system: Group-1 NAs with His-274->Tyr
# [2] = test system: Group-2 NAs with His-274->Tyr
# [3] = test system: Group-1 enzymes with Arg-292->Lys; settings: Group-1 enzymes compared with Group-2 NAs
smiles,measurement,setting,value
CCOC(=O)C1=C[C@@H](OC(CC)CC)[C@H](NC(C)=O)[C@@H](N)C1 [oseltamivir],resistance against oseltamivir caused by the mutation His-274->Tyr,[1],high resistance
same,effect of the mutation His-274->Tyr on resistance against oseltamivir,[2],little effect
same,effect of the mutation Arg-292->Lys on oseltamivir resistance,[3],smaller effect
